This is an account of results in article PMC10892719 (Pharmaceutics, 2024).

Each structure is given as a SMILES string. “Also recorded” adds a separate entry of the source.

In one data set the target is T1, electric eel acetylcholinesterase (eeAChE) (Electrophorus electricus, UniProt O42275).
T1 construct: purchased Sigma-Aldrich (Steinheim, Germany)
T1 sequence (O42275 24-633): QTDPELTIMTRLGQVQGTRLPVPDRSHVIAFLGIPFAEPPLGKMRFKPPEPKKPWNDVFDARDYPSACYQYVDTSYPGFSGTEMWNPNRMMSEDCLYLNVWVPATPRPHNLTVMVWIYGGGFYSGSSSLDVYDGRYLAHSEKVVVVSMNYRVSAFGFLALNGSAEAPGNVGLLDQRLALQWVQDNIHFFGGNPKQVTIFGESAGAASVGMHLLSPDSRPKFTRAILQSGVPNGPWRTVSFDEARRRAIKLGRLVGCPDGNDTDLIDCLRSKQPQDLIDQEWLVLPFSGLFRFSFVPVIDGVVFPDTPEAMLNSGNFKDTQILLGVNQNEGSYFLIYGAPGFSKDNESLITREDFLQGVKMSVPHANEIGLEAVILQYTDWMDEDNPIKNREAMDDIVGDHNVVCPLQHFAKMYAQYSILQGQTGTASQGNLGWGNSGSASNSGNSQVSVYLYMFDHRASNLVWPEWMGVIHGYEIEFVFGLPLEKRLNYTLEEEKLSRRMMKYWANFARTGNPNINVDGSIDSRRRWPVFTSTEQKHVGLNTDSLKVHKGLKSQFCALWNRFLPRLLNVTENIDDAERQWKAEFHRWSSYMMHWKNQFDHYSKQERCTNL
Nature of the data set: AChE inhibition, adapted Ellman method. Particulars: mean of two independent experiments ± SD, read-out: AChE Inhib IC50. The class given is biochemical. The procedure: (§1) The enzyme inhibition of electric eel acetylcholinesterase (eeAChE) and equine butyrylcholinesterase (eqBChE) by our compounds was evaluated through an adaptation of Elmman´s method using reagents from Sigma-Aldrich (Steinheim, Germany). Stock solutions of each compound (1 mg) in MeOH (1 mL) were prepared and then working solutions for each ligand were obtained by the corresponding dilution of the stock solutions. A control measurement with 5 replicates (without ligand) and a calibration curve of 5 points with 3 replicates per point was performed. The preparation of each solution involved fixed volumes of 4-(2-hydroxyethyl)-1-piperazine-ethanesulfonic acid (HEPES) and cholinesterase (eeAChE or eqBChE) with different volumes of ligand solution, and it was left to rest for 15 min immediately after adding the cholinesterase. A blank solution containing HEPES and MeOH was also prepared at the same time. […] The slope for each calibration point (absorbance versus reaction time) was determined and the inhibition for each compound was calculated by using the following equation: %Inhibition=100−(vi/v0×100) where vi is the reaction rate (slope) for each point of the calibrate with ligand and v0 is the initial reaction rate (slope) for the control point (without ligand). […] Experiments were performed twice for each compound.
In general terms: DTNB colorimetry detects thiols as they appear.
Usually IC50 stands for the midpoint of a concentration-inhibition curve. With `CCN(C)C(=O)Oc1cccc(CCNC(=O)c2cc3cc(O)ccc3[nH]2)c1` [Compound 5c2, 3-(2-(5-Hydroxy-1H-indole-2-carboxamido)ethyl)phenyl ethyl(methyl)carbamate], the IC50 was found to be 58.6 ± 0.3 µM.

The target of a further data set is T2, equine butyrylcholinesterase (eqBChE) (Equus caballus, UniProt P81908).
T2 construct: purchased Sigma-Aldrich (Steinheim, Germany)
T2 sequence (P81908 whole entry): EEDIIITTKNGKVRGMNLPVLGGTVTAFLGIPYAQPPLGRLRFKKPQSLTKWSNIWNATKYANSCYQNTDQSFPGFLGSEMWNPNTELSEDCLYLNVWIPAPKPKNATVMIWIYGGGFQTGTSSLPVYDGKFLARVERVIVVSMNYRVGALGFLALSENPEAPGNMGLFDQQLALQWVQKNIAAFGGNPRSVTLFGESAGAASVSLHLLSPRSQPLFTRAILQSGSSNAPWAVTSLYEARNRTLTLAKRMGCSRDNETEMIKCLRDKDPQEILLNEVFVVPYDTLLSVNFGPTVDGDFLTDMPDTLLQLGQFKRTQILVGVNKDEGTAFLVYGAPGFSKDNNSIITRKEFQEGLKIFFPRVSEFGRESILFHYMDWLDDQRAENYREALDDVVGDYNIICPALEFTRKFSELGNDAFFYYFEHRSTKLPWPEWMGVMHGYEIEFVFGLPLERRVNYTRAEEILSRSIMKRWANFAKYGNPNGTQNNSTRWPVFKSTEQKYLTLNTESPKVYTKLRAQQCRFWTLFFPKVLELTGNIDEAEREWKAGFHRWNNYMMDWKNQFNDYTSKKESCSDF
The data set is described as follows: BChE inhibition, adapted Ellman method. The class given is biochemical. Particulars: IC50 (AChE)/IC50 (BChE). The procedure:
as §1
As for `CCN(C)C(=O)Oc1cccc(NC(=O)c2cc3ccccc3[nH]2)c1` [Compound 5a1], the “SI (selectivity index)” value is given as 6.0.

For `CCN(C)C(=O)Oc1cccc(CCNC(=O)c2cc3cc(O)ccc3[nH]2)c1` [Compound 5c2, 3-(2-(5-Hydroxy-1H-indole-2-carboxamido)ethyl)phenyl ethyl(methyl)carbamate], the “SI (selectivity index)” value was 3.8.

The data set is the same for the next values; noted with them: eqBChE, mean of two independent experiments ± SD; read-out: BChE Inhib IC50.
Consider `CCN(C)C(=O)Oc1cccc(NC(=O)c2cc3ccccc3[nH]2)c1` [Compound 5a1], for which the IC50 is 29.9 ± 0.4 µM.

On to `CCN(C)C(=O)Oc1cccc(CCNC(=O)c2cc3cc(O)ccc3[nH]2)c1` [Compound 5c2, 3-(2-(5-Hydroxy-1H-indole-2-carboxamido)ethyl)phenyl ethyl(methyl)carbamate], for which the IC50 turned out to be 15.2 ± 0.4 µM.

Another data set deals with T3, Aβ1-42 (Homo sapiens, UniProt P05067).
T3 construct: purchased Genecust, Boynes, France
T3 sequence (P05067 672-713 limits assumed): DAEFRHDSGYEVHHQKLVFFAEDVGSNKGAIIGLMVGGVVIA
The data set is described as follows: Inhibition of Aβ1-42 self-aggregation, thioflavin T fluorescence. The data set is classed as biochemical. Particulars: Cinhibitor = 20 µM, Aβ1-42 40 µM, 37 °C, 24 h, read-out: Aβ42 Self-Aggreg. Inhib. The protocol: The Aβ peptide (Genecust, Boynes, France) was treated with 1,1,1,3,3,3-hexafluoropropan-2-ol (HFIP, Aldrich, Steinheim, Germany) and dissolved in a CH3CN/Na2CO3 (300 µM)/NaOH (250 µM) ([…], v/v/v) mixture in order to have a stable stock solution of Aβ1-42 with concentration 500 µM.
Solutions of the assayed compounds (0.5 mg/mL) were firstly prepared in 60% (v/v) DMSO/MeOH medium and then diluted in phosphate buffer (0.215 M, pH 8.0) to a concentration of 120 µM. The Aβ1-42 aggregation inhibition assays were performed according to a reported method based on the fluorescence emission of thioflavin T (ThT, Aldrich Steinheim, Germany). Therefore, Aβ1-42 (40 µM) was incubated at 37 °C for 24 h in phosphate buffer and in the presence or absence of each ligand (20 µM). Then, the samples were added to a 96-well plate with 180 µL of 5 µM ThT in 50 mM glycine-NaOH (pH 8.5) buffer. Blank samples were identically prepared for each concentration but in the absence of the peptide. The ThT fluorescence was measured at 445 nm (excitation) and 485 nm (emission). The percent of aggregation inhibition was calculated by the following equation:I% = 100 − (IFi/IF0 × 100), in which IFi and IF0 are the fluorescence intensities, in the presence and the absence of the tested compound, subtracted from the fluorescence intensities due to the respective blanks. The reported values were obtained as the mean ± SEM of two different experiments performed in duplicate.
The inhibitory capacity of the RIV-IND hybrids towards Aβ42 self-aggregation was evaluated in vitro by molecular fluorescence spectroscopy through the thioflavin T (ThT) method. In fact, since there is an increase in the absorbance and emission of ThT when it binds to amyloid fibrils, it is possible to determine the percent of Aβ42 self-aggregation (see Table 1). The assays were performed in the presence of 20 µM of inhibitor to overcome the solubility limitations of some compounds in the phosphate buffer aqueous medium.
Turning to `CCN(C)C(=O)Oc1cccc(NC(=O)c2cc3ccccc3[nH]2)c1` [Compound 5a1], the inhibition at 20 µM was 26.9%.

`CCN(C)C(=O)Oc1cccc(CCNC(=O)c2cc3cc(O)ccc3[nH]2)c1` [Compound 5c2, 3-(2-(5-Hydroxy-1H-indole-2-carboxamido)ethyl)phenyl ethyl(methyl)carbamate]: the inhibition at 20 µM was 49.9%.

For the next data set, the system named is SH-SY5Y cells. The data set is described as follows: Cell viability dose-response screening, MTT. The data set is classed as cell-based, human. The settings on record: 24 h, screening 0.5 µM to 20 µM. The protocol: (§2) Cell viability, following treatment with the compounds, was determined using the colorimetric MTT (3-(4,5-dimethylthiazol-2-yl)-2,5-diphenyltetrazolium bromide) assay. The tested compounds (5a1-3, 5b1-3, 5c1-3) were dissolved in DMSO to produce stock solutions of 25 mM and stored at −20 °C. A concentration screening was performed for 0.5 µM to 20 µM final concentrations to choose the highest nontoxic concentration. SH-SY5Y human neuroblastoma cell line (ATCC-CRL-2266) was cultured in Dulbecco’s modified Eagle’s medium (DMEM) (Gibco-Invitrogen, Life Technologies Ltd., Waltham, MA, USA) with heat-inactivated fetal calf serum (10%), penicillin (50 U/mL) and streptomycin (50 µg/mL) at 37 °C with 5% CO2. Cells were plated at 0.15 × 10^6 cells/mL one day prior to the start of the experiment. The cells were then incubated with the appropriate concentration of the compounds for 24 h. After the incubation period, the cells were washed once with PBS and incubated with 200 µL MTT (0.5 mg/mL) for 2 h at 37 °C with 5% CO2. During this period, cellular dehydrogenase successfully metabolized MTT into formazan, which was then solubilized using 200 µL of 0.04 M HCl/isopropanol. Absorbance was measured at 570 nm.
The new RIV-IND hybrids were tested to determine their protective role in the toxicity induced by either Aβ1-42 peptides or iron/ascorbate. SH-SY5Y cells were incubated with a set of concentrations of each of the compounds and a dose–response curve was constructed to select the highest nontoxic concentration.
Figure 3 Dose–response screening of RIV-IND compounds 5a1-3, 5b1-3 and 5c1-3 measured by MTT reduction ability on SH-SY5Y cells treated with different concentrations of the compounds for 24 h. Results are expressed relatively to untreated cells, with the mean ± standard error of the mean (SEM) derived from three independent experiments. * p < 0.05; ** p < 0.01; *** p < 0.001 compared to untreated cells. (The dot line indicates 100% cellular viability).
Molecule `CCN(C)C(=O)Oc1cccc(NC(=O)c2cc3ccccc3[nH]2)c1` [Compound 5a1] returned a highest nontoxic concentration of 1 µM.

`CCN(C)C(=O)Oc1cccc(CCNC(=O)c2cc3cc(O)ccc3[nH]2)c1` [Compound 5c2, 3-(2-(5-Hydroxy-1H-indole-2-carboxamido)ethyl)phenyl ethyl(methyl)carbamate] displayed a highest nontoxic concentration of 2.5 µM.

The next data set relates to SH-SY5Y cells. Nature of the data set: Neuroprotection against Aβ1-42-induced toxicity, MTT. The class given is cell-based, human. Particulars: Aβ1-42 1 µM, 24 h, optimized concentration of each compound. The procedure:
as §2
To test whether the compounds have a protective effect against toxicity induced by Aβ1-42 or iron/ascorbate, the cells were pre-incubated for 1 h with each compound, followed by the addition of Aβ1-42 or iron/ascorbate and incubation for an additional 24 h. Aβ1-42 (Bachem, Torrance, CA, USA) was prepared in sterile water to produce a stock solution of 443 µM and added to the cells at a final concentration of 1 µM. Ferrous sulfate and L-ascorbic acid (Sigma Chemical Co, St. Louis, MO, USA), prepared in sterile water, were added to the medium together at a final concentration of 5 mM and 2.5 mM, respectively. For this assay, the optimal concentration of each compound was used to prevent cellular demise induced by Aβ1-42 or iron/ascorbate. Compound 5a1 was added to the medium at a 1 µM final concentration; compounds 5a2, 5a3, 5b1, 5b2 and 5c2 were added to the medium at a 2.5 µM final concentration; compounds 5c1 and 5c3 were added to the medium at a 5 µM final concentration; and compound 5b3 was added to the medium at a 10 µM final concentration. […] Controls were employed for each plate using untreated cells and Aβ1-42 or iron/ascorbate only. Cell reduction ability was normalized to the untreated condition. All data are expressed as mean ± SEM of at least three independent experiments performed in duplicate. Statistical analyses were performed for normality assessment using Shapiro–Wilk’s test followed by the Kruskal–Wallis test considering that normality was not verified. Post hoc analysis was performed using uncorrected Dunn’s test. A p value < 0.05 was considered statistically significant.
Figure 4 Neuroprotective effect of RIV-IND compounds against cellular toxicity induced by Aβ1-42 measured by MTT reduction ability on SH-SY5Y cells pretreated with […] for one hour, followed by a 24 h incubation with the optimized concentration of each compound. Results are expressed relatively to untreated cells, with the mean ± standard error of the mean (SEM) derived from three to seven independent experiments. * p < 0.05; ** p < 0.01; *** p < 0.001; **** p < 0.0001 compared to untreated cells. # p < 0.05 compared to Aβ1-42-treated cells. (The dot line indicates the decrease in cellular viability induced by Aβ).
As to `CCN(C)C(=O)Oc1cccc(CCNC(=O)c2cc3cc(O)ccc3[nH]2)c1` [Compound 5c2, 3-(2-(5-Hydroxy-1H-indole-2-carboxamido)ethyl)phenyl ethyl(methyl)carbamate], the “neuroprotective effect against toxicity induced by Aβ1-42” value is “can prevent the toxicity induced by Aβ1-42 to cells; also recorded: able to rescue Aβ1-42-induced toxicity to levels that were not significantly different from untreated cells; also recorded: able to prevent the toxicity induced by Aβ1-42 to neuroblastoma cells (SH-SY5Y)”.

Tested on in the next data set: not listed separately
Nature of the data set: DPPH free radical scavenging (antioxidant) assay. The settings on record: read-out: Antioxidant Activity EC50; DPPH method, mean of three independent experiments. In general terms: The DPPH test is a chemical assay of radical scavenging.
Method: The radical scavenging activity (antioxidant capacity) of the herein-developed RIV-IND hybrids was determined by the DPPH method [33]. Working solutions of the compounds in 10% DMSO/MeOH (, HoneywellSeelze, Germany) medium were used to prepare 5 methanolic solutions (5 points, 3 replicates) containing DPPH (Sigma-Aldrich, Steinheim, Germany) and different concentrations of compound up to 3.5 mL total volume. […] The respective antioxidant activity (%AA) was calculated using the following equation: %AA=ADPPH−Aligand/ADPPH×100
The reported results were obtained as the mean values of three independent experiments.
The new RIV-IND compounds were also screened for their radical scavenging activity (EC50), according to the 2,2-diphenyl-1-picrylhydrazyl (DPPH) free radical method.
One may read the EC50 as the midpoint of the concentration-response curve. As for `Cc1c(O)c(=O)ccn1C` [Deferiprone, deferiprone, reference compound], the EC50 turned out to be 148 ± 3 µM.

Consider `CCN(C)C(=O)Oc1cccc(NC(=O)c2cc3ccccc3[nH]2)c1` [Compound 5a1], for which the EC50 is greater than 2000 µM.

On to `Cc1c(C)c2c(c(C)c1O)CCC(C)(C(=O)O)O2` (centres unmarked) [Trolox, reference compound], for which the EC50 is 13.8 ± 0.2 µM.

For `CCN(C)C(=O)Oc1cccc(CCNC(=O)c2cc3cc(O)ccc3[nH]2)c1` [Compound 5c2, 3-(2-(5-Hydroxy-1H-indole-2-carboxamido)ethyl)phenyl ethyl(methyl)carbamate], the EC50 came out at 8.5 ± 0.6 µM.
